Measured values published in article PMC5515432, “A human tissue-based functional assay platform to evaluate the immune function impact of small molecule inhibitors that target the immune system” (PLoS ONE, 2017).
Several values for one entry are separate records, joined by “and”; a condition that tells them apart may be missing. Equal entries are not always repeated. Entries after “also recorded” stand apart in the source; their conditions may differ. Where two headings read alike, the source gives them in different places. One block for each molecule: values may come before it.

Columns and labels:
TLR9 [1] = experiment: TLR9 response: ODN 2395 induced IL-6 production in PBMCs
Procedure: (§3) To evaluate TLR3 responses, frozen PBMCs were thawed in culture medium. A total of 2x10^5 PBMCs were seeded per well in a 96-well tissue culture plate for the assay. One hour following incubation with compounds at 37°C, 5% CO2, the PBMCs were treated with a PBMC donor-specific EC80 concentration of the high molecular weight Poly I:C (TLR3 ligand, Invivogen, San Diego, CA) or appropriate controls, and were allowed to incubate at 37°C, 5% CO2 for 24 hours. Twenty four hours following incubation, 120μl of the cell culture supernatant was removed from the cell culture plates and frozen at -80°C until further analysis. To evaluate TLR7 and TLR9 responses, PBMCs were thawed in culture medium, reconstituted to a concentration of 3x10^6 cells/ml, dispensed into ultra-low attachment flasks and incubated at 37°C, 5% CO2 for 24h with continuous rocking. The PBMCs were harvested from the flask, seeded at a density of 2x10^5 PBMCs/well in compound-dispensed assay plates and allowed to incubate at 37°C, 5% CO2 for 24 hours. One hour following incubation with compounds at 37°C, 5% CO2, the PBMCs were treated with a PBMC donor-specific EC80 concentration of high molecular weight CL264 (TL7 ligand, Invivogen, San Diego, CA) or ODN 2395 (TLR9 ligand, Invivogen, San Diego, CA), or appropriate controls, and were allowed to incubate at 37°C, 5% CO2 for 24 hours. Twenty four hours following incubation, 120μl of the cell culture supernatant was removed from the cell culture plates and frozen at -80°C until further analysis. The cell culture supernatants were analyzed for IP-10 or IL-6 levels using MSD kits (Meso Scale Discovery, Rockville, MD) according to manufacturer’s protocols.
(§4) The stimulant was the chemical agent that was used to elicit the response in the assay (i.e., TLR ligands in the TLR assay). We used EC80 stimulation conditions for evaluating the impact of compounds in assays with titrable stimulants. To account for donor-to-donor variability in PBMCs, we used donors that whose EC80 values were within a 3-fold range determined by dose-response experiments with the stimulants.

TLR3 [2] = experiment: TLR3 response: Poly I:C induced IP-10 production in PBMCs
Procedure: as §3, §4

TLR7 [3] = experiment: TLR7 response: TLR7 agonist induced IL-6 production in PBMCs; conditions: for TLR7 Max inhibition: sheet 'TLR7', % maximal inhibition = 'top' of curve fit
Procedure: as §3, §4

[4] = test system: ROS production by neutrophils in human whole blood; experiment: Phagocyte oxidative burst (Phagoburst), neutrophil ROS production in whole blood; type: cell-based; conditions: for IC50: sheet 'IC50 values', whole blood, 10 min, corrected for plasma protein binding, unit inferred, Assay control = DPI, read-out: PB_Neut IC50
Procedure: (§1) Phagocytic oxidative burst was assessed in whole blood samples using the Phagoburst kit (Orpegen Biopharma, #10–0200). The assay was modified to accommodate a 96 well format. Briefly, 50 μL human whole blood was mixed well with compounds (0.1% final DMSO concentration) and incubated for 30 minutes at 37°C, 5% CO2. Then, samples were incubated on ice for 5 minutes, followed by the addition of 10uL of reagent B (opsonized bacteria). Samples were then mixed well and incubated for 10 minutes in a 37°C water bath. Next, 10μL of reagent E (substrate solution) was added to the samples, mixed well and incubated for an additional 10 minutes in the 37°C water bath. Then, 150uL of reagent F (lysis solution) was added to all wells, mixed well and incubated for 20 minutes at room temperature. Samples were washed twice with reagent A and incubated with 90μL of reagent G (DNA staining solution) for 10 minutes, on ice and protected from light. The samples were analyzed in a BD Fortessa flow cytometer. Cells were gated based on Forward and Side scatter properties and high content DNA. A total of 10,000 cell events (high content DNA) were collected, analyzed using FACSDiva or Flowjo and the oxidative burst was measured by the geometric mean fluorescence intensity (GMFI) of the ROS detection dye in the assay (Figure C in S2 Fig).
(§2) Compounds were spiked at 1 μM in plasma. […] Following centrifugation, samples were analyzed using LC-MS/MS. […] A similar methodology was followed for media binding.

[5] = test system: NK cell mediated killing of K562 cells
Procedure: (§5) A commercially available kit was used to asses NK cell killing (NK Test, Glycotope Biotechnology). Human PBMCs (effector cells) resuspended in culture medium were plated in a round bottom, sterile poly propylene 96 well plate (Corning #3359) and incubated with compounds (final DMSO concentration 0.1%) for 1 hour. Membrane labeled GFP positive K562 cells (target cells) were then added to the effector cells at a 1:50 target–effector ratio. Cells were centrifuged for 3 minutes at 120xg to ensure cell-cell contact and incubated at 37°C, 5% CO2 for 2 hours. Cells were then resuspended in propidium iodide staining solution and incubated at room temperature for 5 minutes. A total of 10,000 target cell events were acquired on a BD Fortessa flow cytometer, and the data was analyzed by FACSDiva or Flowjo.
(§6) We used EC80 stimulation conditions for evaluating the impact of compounds in assays with titrable stimulants. To account for donor-to-donor variability in PBMCs, we used donors that whose EC80 values were within a 3-fold range determined by dose-response experiments with the stimulants. For the NK cell killing assay, we used the conditions and donors that gave the best assay window (i.e., 1:50 target:effector ratio). For the T cell stimulation assay, we performed a dose-titration of αCD3 and αCD28 to determine the stimulation conditions used in this assay. […] Every assay plate contained samples that would elicit a minimal response (no stimulant), maximal response (stimulant with no compounds), compound dose-response (stimulant with compounds) and positive control (stimulant with compound that is known to inhibit the assay). We evaluated the impact of small molecule inhibitors in 8–10 different doses for every PBMC sample in every assay. The values obtained from multiple PBMC donors were compiled together to calculate the inhibitory concentrations of the compounds in a given assay.
(§7) Each assay contained samples that would elicit a minimal and a maximal response, which defined the assay window.

TLR3 [6] = test system: TLR3
Procedure: as §3, §4

TLR7 [7] = test system: TLR7
Procedure: as §3, §4

TLR9 [8] = test system: TLR9
Procedure: as §3, §4

[9] = test system: NK cell mediated killing of K562 cells; experiment: NK cell killing function (NK Test, PBMC effectors, K562 target cells)
Procedure: as §5, §6, §7

[10] = test system: gene expression of stimulated human PBMCs; experiment: Nanostring mRNA profiling in the T cell stimulation assay (anti-CD3 + anti-CD28 PBMCs); type: cell-based; conditions: for impact on gene expression profile of stimulated PBMCs: 24 h after anti-CD3 and anti-CD28 stimulation, n = 3 donors
Procedure: Cell pellets from experiments were lysed in RLT buffer and prepared according to standard protocol recommended by NanoString Technologies. Briefly, lysates were co-incubated with capture and reporter probes (NanoString Technologies Immunology v2 Codeset) in a thermal cycler set at 65°C for 24 hours. Samples were processed and analyzed with a Generation 2 nCounter. Counts from samples were normalized using housekeeping genes scored on the Nanostring platform. Samples with counts less than 20 were excluded from further analysis. The Matlab function ttest2 was used to determine p-values for log2 fold changes, and the function agglomerative was used to perform clustering.

[11] = test system: IL-2 production by T cells in human PBMCs
Procedure: (§8) Peripheral blood mononuclear cells in culture media were pre-treated with compounds (0.1% final DMSO concentration) for 45 minutes at 37°C, 5% CO2 and then transferred into anti-CD3 (1 μg/mL, OKT3, eBioscience, San Diego, CA) coated plate containing soluble anti-CD28 (1 μg/mL, Fitzgerald, Acton, MA). Twenty four hours after stimulation, an aliquot of cell culture supernatant was collected and evaluated for IL-2 production (MesoScale Discovery, Rockville, MD) according to manufacturer’s instructions. The remaining culture was allowed to continue incubation for an additional 48 hours. To evaluate proliferation, Click-iT EdU Alexa Flour 647 Assay Kit (Invitrogen, Carlsbad, CA) was used according to manufacturer’s instructions, and proliferation was evaluated at 72 hours following stimulation. The cells were stained with flourochrome conjugated antibodies against CD3, CD4 and CD8 and analyzed in a BD Fortessa flow cytometer by acquiring 8–10,000 events. The data was analyzed by FACSDiva or FlowJo and reported as the percentage of EdU^+CD3^+CD4^+ and EdU^+CD3^+CD8^+ lymphocytes (Figure A in S2 Fig).
(§9) The stimulant was the chemical agent that was used to elicit the response in the assay (i.e., TLR ligands in the TLR assay). We used EC80 stimulation conditions for evaluating the impact of compounds in assays with titrable stimulants. To account for donor-to-donor variability in PBMCs, we used donors that whose EC80 values were within a 3-fold range determined by dose-response experiments with the stimulants. For the NK cell killing assay, we used the conditions and donors that gave the best assay window (i.e., 1:50 target:effector ratio). For the T cell stimulation assay, we performed a dose-titration of αCD3 and αCD28 to determine the stimulation conditions used in this assay. For the phagocyte oxidative burst assay, since we could not screen human whole blood for selecting best responders, we followed the manufacturer’s protocol on 8–10 different human whole blood samples. Every assay plate contained samples that would elicit a minimal response (no stimulant), maximal response (stimulant with no compounds), compound dose-response (stimulant with compounds) and positive control (stimulant with compound that is known to inhibit the assay). We evaluated the impact of small molecule inhibitors in 8–10 different doses for every PBMC sample in every assay. The values obtained from multiple PBMC donors were compiled together to calculate the inhibitory concentrations of the compounds in a given assay.
as §7

[12] = test system: CD4+ T cell proliferation in human PBMCs
Procedure: as §8, §9, §7

[13] = test system: CD8+ T cell proliferation in human PBMCs
Procedure: as §8, §9, §7

[14] = test system: IL-2 production by T cells in human PBMCs; experiment: T cell activation: IL-2 production in anti-CD3 + anti-CD28 stimulated PBMCs (MSD, 24 h); conditions: for impact on IL-2 production: PBMC, anti-CD3 + anti-CD28, 24 h; for Tcell_IL2 Max inhibition: sheet 'Tcell_IL2', % maximal inhibition = 'top' of curve fit
Procedure: as §8, §9, §7

[15] = test system: CD4+ T cell proliferation in human PBMCs; experiment: CD4+ T cell proliferation in anti-CD3 + anti-CD28 stimulated PBMCs (EdU flow cytometry, 72 h); conditions: for impact on CD4+ T cell proliferation: PBMC, anti-CD3 + anti-CD28, 72 h
Procedure: as §8, §9, §7

[16] = test system: CD8+ T cell proliferation in human PBMCs; experiment: CD8+ T cell proliferation in anti-CD3 + anti-CD28 stimulated PBMCs (EdU flow cytometry, 72 h); conditions: for impact on CD8+ T cell proliferation: PBMC, anti-CD3 + anti-CD28, 72 h
Procedure: as §8, §9, §7

[17] = test system: ROS production by monocytes in human whole blood; experiment: Phagocyte oxidative burst (Phagoburst), monocyte ROS production in whole blood; type: cell-based
Procedure: as §1, §2

[18] = human whole blood, opsonized bacteria

SMILES: Cc1ccc(S(=O)(=O)/C=C/C#N)cc1 [BAY-11, BAY 11–7082]
effect on TLR9 response, ODN 2395 induced IL-6 (TLR9 [1]): fully inhibited this response
effect on TLR3 response, Poly (I:C) induced IP-10 (TLR3 [2]): fully inhibited the response
effect on TLR7 response, IL-6 production (TLR7 [3]): fully inhibited this response

SMILES: CC(C)(C)c1nc2c3cc[nH]c(=O)c3c3cc(F)ccc3c2[nH]1 [JAK inhibitor 1]
IC50 ([4]; opsonized bacteria): 354 nM
IC50 [5]: 65900 nM
IC50 (TLR3 [6]): 61.1 nM
IC50 (TLR7 [7]): 547 nM
IC50 (TLR9 [8]): 26 nM

SMILES: C/C1=C/C(=O)O[C@@H]2C[C@@H](CC[C@H](C)/C=C\C=C\CC1)O[C@@](O)([C@@H]1CSC(=O)N1)C2 [Latrunculin A, latrunculin A]
effect on NK cell killing activity [9]: completely inhibited

IC50 (TLR9 [8]): 25.4 nM and 25.9 nM
SMILES: Cc1oncc1C(=O)Nc1ccc(C(F)(F)F)cc1 [Leflunomide, leflunomide]
IC50 [5]: 48100 nM

SMILES: CN(Cc1cnc2nc(N)nc(N)c2n1)c1ccc(C(=O)N[C@@H](CCC(=O)O)C(=O)O)cc1 [Methotrexate]
impact on gene expression profile of stimulated PBMCs ([10]; 1μM): minimal impact on restoring the gene expression profile
IC50 [11]: 4960 nM
IC50 [12]: 5.88 nM
IC50 [13]: 10.5 nM
impact on IL-2 production [14]: marginal but variable impact
Tcell_IL2 Max inhibition [14]: 27.8
maximal inhibition of CD4+ T cell proliferation [15]: around 30%
maximal inhibition of CD8+ T cell proliferation [16]: around 30%

IC50 (TLR9 [8]): 2170 nM and 3060 nM
SMILES: COc1c(C)c2c(c(O)c1C/C=C(\C)CCC(=O)OCCN1CCOCC1)C(=O)OC2 [Mycophenolate Mofetil, mycophenolate mofetil]
IL-2 mRNA expression ([10]; 1μM, 24 h): partially reduced
impact on gene expression profile of stimulated PBMCs ([10]; 1μM): minimal impact on restoring the gene expression profile
impact on IL-2 production [14]: inhibited
Tcell_IL2 Max inhibition [14]: 49.64
impact on CD4+ T cell proliferation [15]: inhibited
impact on CD8+ T cell proliferation [16]: inhibited

IC50 (TLR3 [6]): 921 nM and 990 nM
IC50 (TLR7 [7]): 31.7 nM and 34.1 nM
IC50 (TLR9 [8]): 33.2 nM and 35.7 nM
SMILES: C[C@]12C=CC(=O)C=C1CC[C@@H]1[C@@H]2[C@@H](O)C[C@@]2(C)[C@H]1CC[C@]2(O)C(=O)CO [Prednisolone, prednisolone]
IL-2 mRNA expression ([10]; 1μM, 24 h): partially reduced
IL-4 mRNA expression ([10]; 1μM, 24 h): reduced
IL-13 mRNA expression ([10]; 1μM, 24 h): reduced
impact on gene expression profile of stimulated PBMCs ([10]; 1μM): modified the gene expression profile of stimulated samples similar to that of unstimulated cells
IL-2 mRNA expression, time and dose course ([10]; three concentrations, 3h, 6h and 24h following stimulation): impacted in a time- and dose-dependent manner
IC50 [11]: 75.5 nM
IC50 [5]: 21500 nM
effect on TLR9 response, ODN 2395 induced IL-6 (TLR9 [1]): dose-dependent inhibition; also recorded: potent in inhibiting TLR9 responses
TLR7 Max inhibition (TLR7 [3]): 93.77
impact on IL-2 production [14]: inhibited only IL-2 production
Tcell_IL2 Max inhibition [14]: 71.87
impact on CD4+ T cell proliferation [15]: did not have an impact
impact on CD8+ T cell proliferation [16]: did not have an impact

IC50 ([4]; Homo sapiens, Neutrophil, opsonized bacteria): 601 nM
IC50 ([17]; Homo sapiens, Monocyte, 10 min, sheet 'IC50 values', whole blood, opsonized bacteria, 10 min, corrected for plasma protein binding, unit inferred, Assay control = DPI, read-out: PB_Mono IC50): 128 nM
SMILES: CO[C@H]1C[C@@H]2CC[C@@H](C)[C@@](O)(O2)C(=O)C(=O)N2CCCC[C@H]2C(=O)O[C@H]([C@H](C)C[C@@H]2CC[C@@H](O)[C@H](OC)C2)CC(=O)[C@H](C)/C=C(\C)[C@@H](O)[C@@H](OC)C(=O)[C@H](C)C[C@H](C)/C=C/C=C/C=C/1C [Rapamycin, rapamycin]
reduction / maximal inhibition of neutrophil ROS production [4, 18]: 20–40%
PB_Neut Max inhibition ([4]; sheet 'PB_Neut', % maximal inhibition = 'top' of curve fit): 36.53
reduction / maximal inhibition of monocyte ROS production [17, 18]: 20–40%
PB_Mono Max inhibition ([17]; sheet 'PB_Mono', % maximal inhibition = 'top' of curve fit): 13.41
TLR7 Max inhibition (TLR7 [3]): 72.11
impact on IL-2 production [14]: did not have an impact
impact on CD4+ T cell proliferation [15]: did not have an impact
impact on CD8+ T cell proliferation [16]: did not have an impact

SMILES: c1ccc([I+]c2ccccc2)cc1 [diphenyliodonium chloride]
effect on neutrophil ROS production [4, 18]: completely inhibit
effect on monocyte ROS production [17, 18]: completely inhibit
